Results published in the NIST ThermoML archive (doi:10.1016/j.fluid.2014.07.010).
± gives the expanded uncertainty stated by the source.

Conditions: Liquid, Ebulliometric method (Recirculating still)

| Structure (SMILES) | vapor or sublimation pressure (407.15 K) [kPa] | vapor or sublimation pressure (398.57 K) [kPa] |
| --- | --- | --- |
| CCc1cccs1 [2-ethylthiophene] | 101.33 ± 0.46 | – |
| CCCCCCCC [octane] | – | 101.33 ± 0.46 |
